Results taken from patent US11000481B2, “Composite preparation of mosapride and rabeprazole” (KOREA UNITED PHARM. INC., priority 2015, dated 2021).
Like-named read-outs stand apart in the source and are kept apart here.

Tests used:
[1] = Stability of rabeprazole sodium depending on pH; type: physicochemical; conditions: condition of pH 9.0
From the text: Accordingly, it was difficult to conduct a dissolution test for the rabeprazole sodium drug in general conditions.

[2] = exposed to an acidic condition of pH 6.8 or below; conventionally known; cited from earlier work

Stability of rabeprazole sodium [1]: highly stable
SMILES: COCCCOc1ccnc(C[S+]([O-])c2nc3ccccc3[nH]2)c1C (centres unmarked) [rabeprazole sodium]
Stability of rabeprazole sodium [2]: degraded
